Data from article PMC10478824, “Development of FAPI Tetramers to Improve Tumor Uptake and Efficacy of FAPI Radioligand Therapy” (Journal of Nuclear Medicine, 2023).

Key:
[1] = In vitro stability in phosphate-buffered saline and fetal bovine serum (radio-HPLC); type: in vitro ADME
HT-1080-FAP cells = experiment: Cell uptake and blocking experiment; type: cell-based, human; details: 120 min
Method: A human fibrosarcoma cell line was stably transfected with FAP (HT-1080-FAP) and cultured, as previously described ([15]). A human glioblastoma cell line (U87MG, from the Chinese National Infrastructure of Cell Line Resource) was cultured in Dulbecco modified Eagle medium (Thermo Fischer Scientific) supplemented with 10% fetal bovine serum (Thermo Fisher Scientific). HT-1080-FAP cells were seeded in 24-well plates using RPMI 1640 medium with 10% fetal bovine serum, and the medium was replaced with fresh medium without fetal bovine serum when the cells reached 80%–90% density. ^68Ga-FAPI-46, ^68Ga-DOTA-2P(FAPI)2, ^68Ga-DOTA-4P(FAPI)4, or ^68Ga-DOTA-4P(FAPI)4 with 11.3 nmol of unlabeled FAPI-46 (for the blocking experiment) were added to the 24-well plates and incubated for 60, 90, and 120 min. For the competitive cell-binding assay, a gradient concentration (5.6 × 10^−13 to 10^−5 M) of FAPI-46, DOTA-2P(FAPI)2, or DOTA-4P(FAPI)4 was added to the cells and incubated with ^68Ga-FAPI-46 for 60 min. Similarly, a gradient concentration (5.4 × 10^−13 to 10^−5 M) of NOTA-2P(FAPI)2 or NOTA-4P(FAPI)4 was added to the cells and incubated with ^68Ga-FAPI-46 for 60 min. After each step, the cells were washed twice with phosphate-buffered saline (1 mL) and lysed with 1 M NaOH (0.5 mL). The radioactivity (counts per minute) was determined with a γ-counter (WIZARD^2 2480; PerkinElmer Inc.). All experiments were independently repeated 3 times. The 50% inhibitory concentrations were determined by fitting a nonlinear regression model to the data using Prism software, version 8 (GraphPad Software Inc.).

HT-1080-FAP tumors [2] = experiment: Small-animal PET in HT-1080-FAP tumor-bearing mice; type: in vivo
Method: (§1) All animal experimental procedures were approved by the Animal Care and Ethics Committee of Xiamen University and performed in accordance with the Guidelines for the Care and Use of Animals of the Xiamen University Laboratory Animal Center. For in vivo experiments, 6-wk-old BALB/c nude mice (Beijing Vital River Laboratory Animal Technology Co., Ltd.) were subcutaneously inoculated with HT-1080-FAP or U87 cells (5 × 10^6 in 100 μL of phosphate-buffered saline) in the right shoulder.
(§2) Dynamic PET, static PET (with or without competition), and SPECT scans with radiolabeled monomeric, dimeric, and tetrameric FAPIs were performed on HT-1080-FAP tumor–bearing mice for pharmacokinetic evaluation. Additionally, static PET with ^68Ga-labeled monomeric, dimeric, and tetrameric FAPIs was performed and compared in U87MG tumor–bearing mice.
(§3) Approximately 7.4 MBq of ^68Ga-DOTA-4P(FAPI)4 was intravenously injected into HT-1080-FAP tumor–bearing mice (n = 3) for the 60-min dynamic PET. For multiple-time-point static PET (0.5, 1, 2, and 4 h after injection), 7.4 MBq of ^68Ga-FAPI-46, ^68Ga-DOTA-2P(FAPI)2, or ^68Ga-DOTA-4P(FAPI)4 were injected into HT-1080-FAP and U87MG tumor–bearing mice (3/group). For longer-term observation, HT-1080-FAP tumor–bearing mice were intravenously injected with 7.4 MBq of ^64Cu-NOTA-2P(FAPI)2 or ^64Cu-NOTA-4P(FAPI)4 (3/group). For the in vivo blocking experiment, PET imaging was performed 1 h after the simultaneous administration of 30 nmol of unlabeled FAPI-46 and 7.4 MBq of ^68Ga-DOTA-4P(FAPI)4.

U87MG tumors [3] = experiment: Small-animal static PET in U87MG tumor-bearing mice; type: in vivo
Method: as §1, §2
as §3, with “For the in vivo blocking experiment, PET imaging was performed 1 h after the simultaneous administration of 30 nmol of unlabeled FAPI-46 and 7.4 MBq of ^68Ga-DOTA-4P(FAPI)4.” left out

HT-1080-FAP tumors [4] = experiment: Ex vivo biodistribution of ^177Lu-labeled FAPIs in HT-1080-FAP tumor-bearing mice; details: for tumor uptake: HT-1080-FAP tumors
Method: as §1
Three groups of HT-1080-FAP mice were injected with 0.74 MBq of ^177Lu-FAPI-46, ^177Lu-DOTA-2P(FAPI)2, or ^177Lu-DOTA-4P(FAPI)4 and were euthanized at different time points (24–48 h for monomers and 24–96 h for dimers and tetramers, 3/group). Blood, tumor, muscle, and major organs were weighed and measured using a γ-counter (WIZARD^2 2480). Data were normalized to the percentage injected dose per gram (%ID/g) using 1% of total counts.

HT-1080-FAP tumors [5] = experiment: FAP-targeted radioligand therapy in HT-1080-FAP tumor-bearing mice; type: in vivo
Method: as §1
(§4) When the tumor volume reached approximately 100 mm^3, the mice were randomized into 4 groups for radioligand therapy with ^177Lu-labeled monomeric, dimeric, and tetrameric FAPIs (6/group): group A, saline; group B, 29.6 MBq of ^177Lu-FAPI-46; group C, 29.6 MBq of ^177Lu-DOTA-2P(FAPI)2; and group D, 29.6 MBq of ^177Lu-DOTA-4P(FAPI)4. […] HT-1080-FAP, a FAP-transfected tumor xenograft with much higher levels of FAP expression than U87MG, was also used in this study. Therefore, the frequency of administration was higher in U87MG tumor–bearing mice (every 72 h, 3 doses in total) than in the HT-1080-FAP models (a single dose). Weight and tumor volume were monitored every 2 d, and the mice were euthanized when the average tumor volume exceeded 1,500 mm^3, when the tumor was ulcerated, or when weight loss was more than 20%. To further assess radioligand therapy–related toxicity effects, the main organs were collected from the ^177Lu-DOTA-4P(FAPI)4 group on day 22 after hematoxylin and eosin staining ([16]).

U87MG tumors [6] = experiment: FAP-targeted radioligand therapy in U87MG tumor-bearing mice; type: in vivo; details: 29.6 MBq every 72 h, 3 doses
Method: as §1
as §4, with “To further assess radioligand therapy–related toxicity effects, the main organs were collected from the ^177Lu-DOTA-4P(FAPI)4 group on day 22 after hematoxylin and eosin staining ([16]).” left out

[7] = HT-1080-FAP tumor-bearing mice, 48 h after injection

**Q.** For `CN(CCCN1CCN(C(=O)COCCOCCOCCNC(=O)CCC(=O)NCCCC[C@H](NC(=O)CCC(=O)NCCOCCOCCOCC(=O)N2CCN(CCCN(C)c3ccc4nccc(C(=O)NCC(=O)N5CC(F)(F)C[C@H]5C#N)c4c3)CC2)C(=O)NCCCC[C@H](NC(=O)[C@H](CCCCNC(=O)CN2CCN(CC(=O)[O-])CCN(CC(=O)[O-])CCN(CC(=O)[O-])CC2)NC(=O)CCC(=O)NCCOCCOCCOCC(=O)N2CCN(CCCN(C)c3ccc4nccc(C(=O)NCC(=O)N5CC(F)(F)C[C@H]5C#N)c4c3)CC2)C(=O)NCCOCCOCCOCC(=O)N2CCN(CCCN(C)c3ccc4nccc(C(=O)NCC(=O)N5CC(F)(F)C[C@H]5C#N)c4c3)CC2)CC1)c1ccc2nccc(C(=O)NCC(=O)N3CC(F)(F)C[C@H]3C#N)c2c1.[68Ga+3]` [^68Ga-DOTA-4P(FAPI)4], which “in vitro stability (demetallation / free radioactivity)” value ([1]; 4 h incubation in phosphate-buffered saline and fetal bovine serum) is on record?
**A.** highly stable

**Q.** What about the “in vitro stability (demetallation / free radioactivity)” value ([1]; 4 h incubation in phosphate-buffered saline and fetal bovine serum, listed as 68Ga-DOTA-4P[FAPI]4) of the same compound?
**A.** neither significant demetallation nor free radioactivity was observed

**Q.** And the cell uptake (HT-1080-FAP cells)?
**A.** 57.98% ± 0.27%

**Q.** What about the “reduction of cell uptake by blocking” value (HT-1080-FAP cells; unlabeled FAPI-46) of the same compound?
**A.** 97%

**Q.** What about the “cell uptake with blocking” value (HT-1080-FAP cells; with 11.3 nmol unlabeled FAPI-46) of the same compound?
**A.** 1.79% ± 0.97%

**Q.** And the elimination route (HT-1080-FAP tumors [2]; HT-1080-FAP tumor-bearing mice, PET)?
**A.** eliminated predominantly through the kidneys and bladder

**Q.** What about the “reduction in tumor uptake by blocking” value (HT-1080-FAP tumors [2]; HT-1080-FAP tumors, 1 h after injection, unlabeled FAPI-46) of the same compound?
**A.** 92%

**Q.** What about the “tumor uptake SUVmean without blocking” value (HT-1080-FAP tumors [2]; HT-1080-FAP tumors, PET, 1 h after injection) of the same compound?
**A.** 1.87 ± 0.08

**Q.** What about the “tumor uptake SUVmean with blocking” value (HT-1080-FAP tumors [2]; HT-1080-FAP tumors, PET, 1 h after injection, coinjection of 30 nmol unlabeled FAPI-46) of the same compound?
**A.** 0.16 ± 0.03

**Q.** What about the “tumor uptake SUVmean” value (HT-1080-FAP tumors [2]; HT-1080-FAP tumors, PET, 4 h after injection) of the same compound?
**A.** 1.99 ± 0.09

**Q.** And the “course of tumor uptake over time” value (HT-1080-FAP tumors [2]; HT-1080-FAP tumors, static PET up to 4 h after injection)?
**A.** tumor uptake remained constant up to 4 h after injection

**Q.** What about the washout from tumor (U87MG tumors [3]; PET 0.5-4 h after injection) of the same compound?
**A.** minimal

**Q.** What about the “tumor uptake SUVmean” value (U87MG tumors [3]; PET, 1 h after injection) of the same compound?
**A.** 0.72 ± 0.02

**Q.** For `CN(CCCN1CCN(C(=O)COCCOCCOCCNC(=O)CCC(=O)NCCCC[C@H](NC(=O)CCC(=O)NCCOCCOCCOCC(=O)N2CCN(CCCN(C)c3ccc4nccc(C(=O)NCC(=O)N5CC(F)(F)C[C@H]5C#N)c4c3)CC2)C(=O)NCCCC[C@H](NC(=O)[C@H](CCCCNC(=O)CN2CCN(CC(=O)[O-])CCN(CC(=O)[O-])CCN(CC(=O)[O-])CC2)NC(=O)CCC(=O)NCCOCCOCCOCC(=O)N2CCN(CCCN(C)c3ccc4nccc(C(=O)NCC(=O)N5CC(F)(F)C[C@H]5C#N)c4c3)CC2)C(=O)NCCOCCOCCOCC(=O)N2CCN(CCCN(C)c3ccc4nccc(C(=O)NCC(=O)N5CC(F)(F)C[C@H]5C#N)c4c3)CC2)CC1)c1ccc2nccc(C(=O)NCC(=O)N3CC(F)(F)C[C@H]3C#N)c2c1.[177Lu+3]` [^177Lu-DOTA-4P(FAPI)4], which “in vitro stability (demetallation / free radioactivity)” value ([1]; 24 h incubation in phosphate-buffered saline and fetal bovine serum) is on record?
**A.** highly stable

**Q.** And the “in vitro stability (demetallation / free radioactivity)” value ([1]; 24 h incubation in phosphate-buffered saline and fetal bovine serum, listed as 177Lu-DOTA-4P[FAPI]4)?
**A.** neither significant demetallation nor free radioactivity was observed

**Q.** And the kidney uptake (HT-1080-FAP tumors [4]; [7])?
**A.** 6.6 ± 0.2 %ID/g

**Q.** And the liver uptake (HT-1080-FAP tumors [4]; [7])?
**A.** 6.3 ± 0.5 %ID/g

**Q.** And the spleen uptake (HT-1080-FAP tumors [4]; [7])?
**A.** 5.1 ± 0.7 %ID/g

**Q.** What about the tumor uptake (HT-1080-FAP tumors [4]; 24 h after injection) of the same compound?
**A.** 21.4 ± 1.7 %ID/g

**Q.** And the tumor uptake (HT-1080-FAP tumors [4]; 48 h after injection)?
**A.** 19.2 ± 0.6 %ID/g

**Q.** And the tumor uptake (HT-1080-FAP tumors [4]; 72 h after injection)?
**A.** 18.8 ± 2.1 %ID/g

**Q.** And the tumor uptake (HT-1080-FAP tumors [4]; 96 h after injection)?
**A.** 14.8 ± 0.9 %ID/g

**Q.** And the “systemic toxicity by monitoring body weight” value (HT-1080-FAP tumors [5]; HT-1080-FAP tumor-bearing mice, 29.6 MBq)?
**A.** No systemic toxicity

**Q.** And the “tumor growth after radioligand therapy” value (HT-1080-FAP tumors [5]; HT-1080-FAP, single dose 29.6 MBq)?
**A.** significant inhibition of tumor growth

**Q.** What about the “hematoxylin and eosin staining of selected nontarget organs” value (HT-1080-FAP tumors [5]; organs collected on day 22, versus control) of the same compound?
**A.** no differences between the control and radioligand therapy groups

**Q.** And the median survival (U87MG tumors [6])?
**A.** not reached

**Q.** And the tumor volume (U87MG tumors [6]; day 14 after treatment)?
**A.** 140.28 ± 76.36 mm^3
